Results taken from patent publication US12570659B2, “Bicyclic heteroaryl compounds useful as IRAK4 inhibitors” (BRISTOL-MYERS SQUIBB COMPANY, priority 2019, dated 2026).
pIC50: −log10 of the molar value.

How the values were obtained:
[1] = test system: TLR2 agonist-stimulated IL-6 in human whole blood; assay: IRAK4 Whole Blood Assay; assay type: cell-based; settings: lipoteichoic acid 10 μg/mL, 5 hours, IL-6 levels
Procedure: Human whole blood containing the anti-coagulant ACD-A was plated in 384-well plate (25 μL/well) and incubated with compounds for 60 minutes at 37° C. in a 5% CO2 incubator. The blood was stimulated with a TLR2 agonist, 10 μg/mL final concentration of lipoteichoic acid (Invivogen, San Diego, CA) in 25 μL RPMI (Gibco) for 5 hours in a 5% CO2 incubator. At the end of the incubation, plates were centrifuged at 2300 rpm for 5 minutes. Supernatants were harvested and analyzed for IL-6 levels by Flow Cytometry beads assay (BD Biosciences, San Jose, CA).

[2] = biological target: JAK3 kinase (Homo sapiens (Human), UniProt P52333); assay: JAK3 Homogeneous Time Resolved Fluorescence (HTRF) Assay; assay type: binding; settings: for pIC50: competition binding with fluorescein-labeled ATP competitive probe; for Ratio of JAK3 IC50 to IRAK4 IC50: selectivity for IRAK4 over JAK3
In short: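 TR-FRET competition binding: 1 nM His- or GST-tagged JAK3 with 0.2 nM Tb-labeled anti-tag antibody, fluorescein ATP-competitive probe at its Kd, and compound for one hour. FRET read at 495/520 nm, normalized to no-compound signal. IC50 from 11 concentrations, 4-parameter logistic fit.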

[3] = biological target: IRAK4 (Homo sapiens (Human), UniProt Q9NWZ3); assay: IRAK4 Inhibition Assay; assay type: biochemical; settings: ATP 500 μM; IRAK4 0.6 nM; 60 min room temperature
In short: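 Reaction started by combining IRAK4 with substrates and compound, run 60 min at room temperature and stopped with 35 mM EDTA. Fluorescent substrate and phosphorylated product were separated electrophoretically on a Caliper LabChip; inhibition normalized to no-enzyme (100%) and vehicle-only (0%) controls.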

Chain of IRAK4 (Q9NWZ3 whole entry, species assumed): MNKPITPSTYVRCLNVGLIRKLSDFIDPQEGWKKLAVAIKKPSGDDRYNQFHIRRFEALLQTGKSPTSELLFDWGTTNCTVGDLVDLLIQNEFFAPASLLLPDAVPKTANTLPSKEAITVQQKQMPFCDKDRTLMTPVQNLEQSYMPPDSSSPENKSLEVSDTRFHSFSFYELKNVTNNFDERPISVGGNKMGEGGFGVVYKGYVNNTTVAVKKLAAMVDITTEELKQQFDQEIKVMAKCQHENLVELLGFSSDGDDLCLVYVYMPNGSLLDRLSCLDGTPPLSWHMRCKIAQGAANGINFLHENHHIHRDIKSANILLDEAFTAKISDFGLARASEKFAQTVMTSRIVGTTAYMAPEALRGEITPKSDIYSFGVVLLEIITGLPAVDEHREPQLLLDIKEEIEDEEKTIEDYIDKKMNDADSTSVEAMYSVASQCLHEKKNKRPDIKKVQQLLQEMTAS
Chain of JAK3 kinase (P52333 whole entry): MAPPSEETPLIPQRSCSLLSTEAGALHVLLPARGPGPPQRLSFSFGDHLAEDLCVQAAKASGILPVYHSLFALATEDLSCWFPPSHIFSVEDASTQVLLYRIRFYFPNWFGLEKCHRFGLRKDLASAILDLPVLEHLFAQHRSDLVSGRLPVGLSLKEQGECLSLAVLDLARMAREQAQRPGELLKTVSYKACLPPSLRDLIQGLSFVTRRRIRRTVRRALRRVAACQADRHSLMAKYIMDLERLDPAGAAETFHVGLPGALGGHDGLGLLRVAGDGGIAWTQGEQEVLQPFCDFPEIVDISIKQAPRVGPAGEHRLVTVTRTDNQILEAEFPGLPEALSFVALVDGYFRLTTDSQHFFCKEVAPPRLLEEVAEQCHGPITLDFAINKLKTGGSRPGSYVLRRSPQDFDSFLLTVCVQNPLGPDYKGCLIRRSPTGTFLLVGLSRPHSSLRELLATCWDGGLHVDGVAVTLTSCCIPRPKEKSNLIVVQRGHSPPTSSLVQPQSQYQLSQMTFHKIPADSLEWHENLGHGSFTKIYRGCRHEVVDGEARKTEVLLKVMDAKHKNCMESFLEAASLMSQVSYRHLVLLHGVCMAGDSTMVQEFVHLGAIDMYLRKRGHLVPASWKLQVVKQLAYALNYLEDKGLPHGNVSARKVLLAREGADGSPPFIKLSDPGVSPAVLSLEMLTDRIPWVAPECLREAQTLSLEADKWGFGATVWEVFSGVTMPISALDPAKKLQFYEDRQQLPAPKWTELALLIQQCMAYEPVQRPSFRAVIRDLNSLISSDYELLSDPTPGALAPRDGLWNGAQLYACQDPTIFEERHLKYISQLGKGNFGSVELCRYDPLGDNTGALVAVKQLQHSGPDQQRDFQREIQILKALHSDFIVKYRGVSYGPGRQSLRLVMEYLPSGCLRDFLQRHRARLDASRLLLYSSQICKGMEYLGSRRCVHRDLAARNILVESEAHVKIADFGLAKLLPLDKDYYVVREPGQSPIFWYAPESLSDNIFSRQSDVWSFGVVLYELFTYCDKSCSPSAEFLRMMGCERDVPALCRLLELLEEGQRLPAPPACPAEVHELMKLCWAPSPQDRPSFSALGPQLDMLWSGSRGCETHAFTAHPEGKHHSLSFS

Structure (SMILES) | pIC50 [1] | pIC50 [2] | Ratio of JAK3 IC50 to IRAK4 IC50 [2] | pIC50 [3]
CC(C)Nc1c(C(=O)NC[C@@H](F)C(C)(C)O)cnn2cc(-c3cncs3)cc12 [Example 55, (R)—N-(2-fluoro-3-hydroxy-3-methylbutyl)-4-(isopropylamino)-6-(thiazol-5-yl)pyrrolo[1,2-b]pyridazine-3-carboxamide] | < 5.00 | < 4.30 | >12821 | 8.41
Cc1cc(F)ncc1-c1cc2c(NC(C)C)c(C(=O)N[C@H]3CC[C@H](c4nc[nH]n4)CC3)cnn2c1 [Example 91, N-((1r,4r)-4-(1H-1,2,4-triazol-3-yl)cyclohexyl)-6-(6-fluoro-4-methylpyridin-3-yl)-4-(isopropylamino)pyrrolo[1,2-b]pyridazine-3-carboxamide] | 5.84 | < 4.30 | >9615 | 8.28
CC(C)Nc1c(C(=O)NCCC(C)(C)O)cnn2cc(-c3ccncc3F)nc12 [Example 109, 2-(3-fluoropyridin-4-yl)-N-(3-hydroxy-3-methylbutyl)-8-(isopropylamino)imidazo[1,2-b]pyridazine-7-carboxamide] | < 4.70 | < 4.30 | >4167 | 7.92
COC(=O)N[C@H]1CC[C@H](NC(=O)c2cnn3cc(-c4ccncc4)cc3c2NC(C)C)CC1 [Example 51, methyl ((1r,4r)-4-(4-(isopropylamino)-6-(pyridin-4-yl)pyrrolo[1,2-b]pyridazine-3-carboxamido)cyclohexyl)carbamate] | 5.75 | < 4.30 | >17857 | 8.55
CC(C)Nc1c(C(=O)NC2CCN(S(C)(=O)=O)CC2)cnn2cc(-c3ccc(F)nc3)cc12 [Example 85, 6-(6-fluoropyridin-3-yl)-4-(isopropylamino)-N-(1-(methylsulfonyl)piperidin-4-yl)pyrrolo[1,2-b]pyridazine-3-carboxamide] | 6.06 | ~4.51 | ~12400 | 8.60
CC(C)CCNC(=O)c1cnn2cc(-c3ccncc3)cc2c1NC(C)C [Example 64, N-isopentyl-4-(isopropylamino)-6-(pyridin-4-yl)pyrrolo[1,2-b]pyridazine-3-carboxamide] | 5.05 | ~4.54 | ~2071 | 7.85
CC(C)Nc1c(C(=O)N[C@H]2CC[C@H](O)CC2)cnn2cc(-c3ccncc3)cc12 [Example 60, N-((1r,4r)-4-hydroxycyclohexyl)-4-(isopropylamino)-6-(pyridin-4-yl)pyrrolo[1,2-b]pyridazine-3-carboxamide] | 5.40 | < 4.30 | >5263 | 8.02
CC(=O)N[C@H]1CC[C@H](NC(=O)c2cnn3cc(-c4ccncc4)nc3c2NC(C)C)CC1 [Example 108, N-((1r,4r)-4-acetamidocyclohexyl)-8-(isopropylamino)-2-(pyridin-4-yl)imidazo[1,2-b]pyridazine-7-carboxamide] | 6.05 | ~4.31 | ~4455 | 7.96
CC(C)Nc1c(C(=O)NCCC(C)(C)O)cnn2cc(-c3ccncc3)cc12 [Example 62, N-(3-hydroxy-3-methylbutyl)-4-(isopropylamino)-6-(pyridin-4-yl)pyrrolo[1,2-b]pyridazine-3-carboxamide] | 5.70 | < 4.30 | >5952 | 8.08
Cc1cc(F)ncc1-c1cc2c(NC(C)C)c(C(=O)N[C@H]3CC[C@H](C(N)=O)CC3)cnn2c1 [Example 88, N-((1r,4r)-4-carbamoylcyclohexyl)-6-(6-fluoro-4-methylpyridin-3-yl)-4-(isopropylamino)pyrrolo[1,2-b]pyridazine-3-carboxamide] | < 5.00 | < 4.30 | >6579 | 8.12
CC(C)Nc1c(C(=O)N[C@H]2CC[C@H](C(=O)N3CCOCC3)CC2)cnn2cc(-c3ccncc3F)cc12 [Example 84, 6-(3-fluoropyridin-4-yl)-4-(isopropylamino)-N-((1r,4r)-4-(morpholine-4-carbonyl)cyclohexyl)pyrrolo[1,2-b]pyridazine-3-carboxamide] | 5.98 | < 4.30 | >18519 | 8.57
CC(C)Nc1c(C(=O)N[C@H]2CC[C@H](c3nc[nH]n3)CC2)cnn2cc(-c3ccncc3F)cc12 [Example 93, N-((1r,4r)-4-(1H-1,2,4-triazol-3-yl)cyclohexyl)-6-(3-fluoropyridin-4-yl)-4-(isopropylamino)pyrrolo[1,2-b]pyridazine-3-carboxamide] | 5.98 | < 4.30 | >21739 | 8.64
CC(C)Nc1c(C(=O)NC[C@@H](F)C(C)(C)O)cnn2cc(-c3cn[nH]c3)cc12 [Example 34, (R)—N-(2-fluoro-3-hydroxy-3-methylbutyl)-4-(isopropylamino)-6-(1H-pyrazol-4-yl) pyrrolo[1,2-b]pyridazine-3-carboxamide] | < 5.00 | < 5.00 | >1493 | 8.17
CC(=O)N[C@H]1CC[C@H](NC(=O)c2cnn3c(Cl)c(-c4ccncc4)cc3c2NC(C)C)CC1 [Example 80, N-((1r,4r)-4-acetamidocyclohexyl)-7-chloro-4-(isopropylamino)-6-(pyridin-4-yl)pyrrolo[1,2-b]pyridazine-3-carboxamide] | 6.14 | ~4.46 | ~17500 | 8.70
CC(C)Nc1c(C(=O)N[C@H]2CC[C@H](C(N)=O)CC2)cnn2cc(-c3ccncc3F)cc12 [Example 89, N-((1r,4r)-4-carbamoylcyclohexyl)-6-(3-fluoropyridin-4-yl)-4-(isopropylamino) pyrrolo[1,2-b]pyridazine-3-carboxamide] | 5.87 | < 4.30 | >13158 | 8.42
CC(=O)N[C@H]1CC[C@H](NC(=O)c2cnn3cc(-c4ccncc4F)cc3c2NC(C)C)CC1 [Example 65, N-((1r,4r)-4-acetamidocyclohexyl)-6-(3-fluoropyridin-4-yl)-4-(isopropylamino)pyrrolo[1,2-b] pyridazine-3-carboxamide] | 6.44 | < 4.30 | >31250 | 8.80
CC(C)Nc1c(C(=O)NCCC(C)(C)O)cnn2cc(-c3ccncc3F)cc12 [Example 77, 6-(3-fluoropyridin-4-yl)-N-(3-hydroxy-3-methylbutyl)-4-(isopropylamino)pyrrolo[1,2-b]pyridazine-3-carboxamide] | 5.88 |  |  | 8.37
COC(=O)Nc1cc(-c2cc3c(NC(C)C)c(C(=O)NC[C@@H](F)C(C)(C)O)cnn3c2)ccn1 [Example 46, methyl (R)-(4-(3-((2-fluoro-3-hydroxy-3-methylbutyl)carbamoyl)-4-(isopropylamino)pyrrolo[1,2-b]pyridazin-6-yl)pyridin-2-yl) carbamate] | 5.21 | < 4.30 | >5495 | 8.04
CC(C)Nc1c(C(=O)NCCN2CCOCC2)cnn2cc(-c3ccncc3)cc12 [Example 63, 4-(isopropylamino)-N-(2-morpholinoethyl)-6-(pyridin-4-yl) pyrrolo[1,2-b]pyridazine-3-carboxamide] | 5.70 | < 4.30 | >4167 | 7.92
CC(C)Nc1c(C(=O)NC[C@@H](F)C(C)(C)O)cnn2cc(-c3cccc(C#N)c3)cc12 [Example 2, (R)-6-(3-cyanophenyl)-N-(2-fluoro-3-hydroxy-3-methylbutyl)-4-(isopropylamino) pyrrolo[1,2-b]pyridazine-3-carboxamide] | < 5.00 |  |  | 7.92
CC(C)Nc1c(C(=O)NC[C@@H](F)C(C)(C)O)cnn2cc(-c3cnoc3)cc12 [Example 44, (R)—N-(2-fluoro-3-hydroxy-3-methylbutyl)-4-(isopropylamino)-6-(isoxazol-4-yl)pyrrolo[1,2-b]pyridazine-3-carboxamide] |  | < 4.30 | >33 | 5.82
CC(C)Nc1c(C(=O)NC[C@@H](F)C(C)(C)O)cnn2cc(-c3cncnc3)cc12 [Example 4, (R)—N-(2-fluoro-3-hydroxy-3-methylbutyl)-4-(isopropylamino)-6-(pyrimidin-5-yl)pyrrolo[1,2-b]pyridazine-3-carboxamide] |  | < 4.30 | >2632 | 7.72
CC(C)Nc1c(C(=O)NC[C@@H](F)C(C)(C)O)cnc2cc(-n3ccccc3=O)nn12 [Example 151, (R)—N-(2-fluoro-3-hydroxy-3-methylbutyl)-7-(isopropylamino)-2-(2-oxopyridin-1(2H)-yl)pyrazolo[1,5-a]pyrimidine-6-carboxamide] |  | < 4.30 | >86 | 6.24
